Measured values taken from US20230293599A1, “BACTERIAL COMPOSITIONS WITH ANTI-INFLAMMATORY ACTIVITY” (Universiteit Gent, priority 2020, published 2023).
Where two headings read alike, the source gives them in different places. Residues, ends and D or L forms follow the SMILES beside them.

Assays:
R. gilardii = assay: Biolog Phenotype Microarray PM1-2 growth on carbon sources; type: cell-based, Roseomonas gilardii
Protocol: (§1) Using Phenotype Microarray (PM) panels (Biolog), the influence of 190 carbon sources on the growth of the potential probiotic species R. mucilaginosa, R. dentocariosa, R. gilardii, G. haemolysans, and common respiratory pathogens P. aeruginosa, and S. aureus was determined. PM1 and PM2 panels (Biolog) were inoculated according to the manufacturer's instructions. Growth curves were generated for 35 hours by measuring the absorbance at 590 nm using an EnVision (Perkin Elmer) plate reader.

S. aureus = type: cell-based, Staphylococcus aureus
Protocol: as §1

P. aeruginosa = assay: Biolog Phenotype Microarray PM1-2 growth on carbon sources; type: cell-based, Pseudomonas aeruginosa
Protocol: as §1

R. mucilaginosa = assay: as above; type: cell-based, Rothia mucilaginosa; settings: for AUC of growth curve, R. mucilaginosa: 35 hours, absorbance 590 nm, n = 1, cells without values AUC < 50; for growth of R. mucilaginosa on the carbon source (in words): AUC lower than 50 = not supporting growth
Protocol: as §1

R. dentocariosa = assay: as above; type: cell-based, Rothia dentocariosa
Protocol: as §1

[1] = 35 hours, absorbance 590 nm, n = 1, cells without values AUC < 50
[2] = AUC lower than 50 = not supporting growth

Compound | AUC of growth curve, S. aureus (S. aureus) | AUC of growth curve, P. aeruginosa (P. aeruginosa; [1]) | other results
O=C(O)CC(O)C(=O)O (racemic) [D,L-Malic Acid] | 696.0 | 852.7 | AUC of growth curve, R. gilardii (R. gilardii; [1]): 169.8
O=P(O)(O)OCC(O)CO (racemic) [D,L-α-Glycerol-Phosphate] | – | 114.5 | AUC of growth curve, R. mucilaginosa (R. mucilaginosa): 247.7; growth of R. mucilaginosa on the carbon source (in words) (R. mucilaginosa): enable growth; growth of S. aureus on the carbon source (in words) (S. aureus): not or only minimally supporting growth; AUC of growth curve, R. dentocariosa (R. dentocariosa; [1]): 271.8; growth of R. dentocariosa on the carbon source (in words) (R. dentocariosa; [2]): enable growth; growth of P. aeruginosa on the carbon source (in words) (P. aeruginosa; [2]): not or only minimally supporting growth
OC[C@H]1O[C@@H](Oc2ccc(O)cc2)[C@H](O)[C@@H](O)[C@@H]1O [Arbutin] | 282.2 | – | AUC of growth curve, R. dentocariosa (R. dentocariosa; [1]): 55.2
O=C(O)CC(Br)C(=O)O (stereo not drawn) [Bromo Succinic Acid] | 430.7 | 102.6 | AUC of growth curve, R. gilardii (R. gilardii; [1]): 67.3; AUC of growth curve, R. dentocariosa (R. dentocariosa; [1]): 808.4
O=C(O)CC(O)(CC(=O)O)C(=O)O [Citric Acid] | 169.0 | 846.5 | AUC of growth curve, R. gilardii (R. gilardii; [1]): 156.2
C[C@@H](O)[C@H](O)[C@H](O)[C@@H](O)C=O [D-Fucose] | 138.3 | 91.3 | AUC of growth curve, R. gilardii (R. gilardii; [1]): 71.4; AUC of growth curve, R. dentocariosa (R. dentocariosa; [1]): 119.9
O=C[C@H](O)[C@@H](O)[C@@H](O)[C@H](O)C(=O)O [D-Galacturonic Acid] | 165.1 | 598.2 | AUC of growth curve, R. dentocariosa (R. dentocariosa; [1]): 57.0
OC[C@H]1O[C@@](CO)(O[C@H]2O[C@H](CO)[C@@H](O)[C@H](O)[C@H]2O)[C@@H](O[C@H]2O[C@H](CO)[C@@H](O)[C@H](O)[C@H]2O)[C@@H]1O [D-Melezitose] | 969.2 | – | AUC of growth curve, R. dentocariosa (R. dentocariosa; [1]): 57.2
OC[C@H]1O[C@H](OCC2O[C@@H](O)[C@H](O)[C@@H](O)[C@@H]2O)[C@H](O)[C@@H](O)[C@H]1O (stereo partly drawn) [D-Melibiose] | 220.2 | – | AUC of growth curve, R. gilardii (R. gilardii; [1]): 86.9; AUC of growth curve, R. dentocariosa (R. dentocariosa; [1]): 249.8
OC[C@@H](O)[C@@H](O)[C@H](O)[C@@H](O)CO [D-Sorbitol] | 412.2 | 129.8 | –
O=C(CO)[C@@H](O)[C@@H](O)[C@H](O)CO [D-Tagatose] | 633.2 | – | AUC of growth curve, R. gilardii (R. gilardii): 75.2; AUC of growth curve, R. dentocariosa (R. dentocariosa): 117.7; AUC of growth curve, P. aeruginosa (P. aeruginosa): 574.0
OC[C@H]1O[C@H](O[C@H]2O[C@H](CO)[C@@H](O)[C@H](O)[C@H]2O)[C@H](O)[C@@H](O)[C@@H]1O [D-Trehalose] | 852.9 | – | AUC of growth curve, R. mucilaginosa (R. mucilaginosa): 572.3; growth of R. mucilaginosa on the carbon source (in words) (R. mucilaginosa): allowed growth; AUC of growth curve, R. dentocariosa (R. dentocariosa; [1]): 937.7; growth of R. dentocariosa on the carbon source (in words) (R. dentocariosa; [2]): allowed growth; growth of P. aeruginosa on the carbon source (in words) (P. aeruginosa; [2]): did not support growth
O=C(O)/C=C/C(=O)O [Fumaric Acid] | 687.9 | 1085.5 | AUC of growth curve, R. dentocariosa (R. dentocariosa; [1]): 202.9
NCC(=O)O [Glycine] | 743.1 | 101.6 | –
NCC(=O)N[C@@H](CC(=O)O)C(=O)O [Glycyl-L-Aspartic Acid] (H-Gly-Asp-OH) | 840.3 | – | AUC of growth curve, P. aeruginosa (P. aeruginosa): 538.0
NCC(=O)N1CCC[C@H]1C(=O)O [Glycyl-L-Proline] (H-Gly-Pro-OH) | 292.4 | – | AUC of growth curve, R. dentocariosa (R. dentocariosa): 72.5; AUC of growth curve, P. aeruginosa (P. aeruginosa): 387.4
OC[C@H]1O[C@@H](n2cnc3c(O)ncnc32)[C@H](O)[C@@H]1O [Inosine] | 1075.0 | 141.0 | –
C[C@H](N)C(=O)O [L-Alanine] | 564.0 | 775.3 | –
N=C(N)NCCC[C@H](N)C(=O)O [L-Arginine] | 816.4 | – | AUC of growth curve, P. aeruginosa (P. aeruginosa): 285.4
NC(=O)C[C@H](N)C(=O)O [L-Asparagine] | 684.0 | 1032.0 | –
N[C@@H](CC(=O)O)C(=O)O [L-Aspartic Acid] | 464.1 | 730.7 | –
O=C1O[C@H]([C@@H](O)CO)[C@@H](O)[C@@H]1O [L-Galactonic Acid γ-Lactone] | 176.4 | – | AUC of growth curve, R. gilardii (R. gilardii): 212.2; AUC of growth curve, P. aeruginosa (P. aeruginosa): 549.8
N[C@@H](CCC(=O)O)C(=O)O [L-Glutamic Acid] | – | 788.3 | AUC of growth curve, S. aureus (S. aureus; [1]): 644.7
NC(=O)CC[C@H](N)C(=O)O [L-Glutamine] | 697.1 | 987.8 | –

Compound | AUC of growth curve, S. aureus (S. aureus) | AUC of growth curve, P. aeruginosa (P. aeruginosa; [1]) | other results
N[C@@H](Cc1c[nH]cn1)C(=O)O [L-Histidine] | 467.3 | 773.2 | –
N[C@@H](CCO)C(=O)O [L-Homoserine] | 194.1 | 82.5 | –
CC[C@H](C)[C@H](N)C(=O)O [L-Isoleucine] | 113.8 | 86.2 | –
CC(C)C[C@H](N)C(=O)O [L-Leucine] | 231.5 | 125.5 | –
CSCC[C@H](N)C(=O)O [L-Methionine] | 254.7 | 52.6 | –
O=C(O)[C@@H]1CCCN1 [L-Proline] | 567.9 | 425.7 | AUC of growth curve, R. mucilaginosa (R. mucilaginosa): 268.5; AUC of growth curve, R. dentocariosa (R. dentocariosa; [1]): 1049.5
O=C1CC[C@@H](C(=O)O)N1 [L-Pyroglutamic Acid] | 427.9 | 1438.7 | –
O=C(CO)[C@@H](O)[C@H](O)[C@@H](O)CO [L-Sorbose] | 458.7 | – | AUC of growth curve, R. dentocariosa (R. dentocariosa): 52.1; AUC of growth curve, P. aeruginosa (P. aeruginosa): 94.3
O=C(O)CC(=O)O [Malonic Acid] | 470.9 | 234.7 | –
OC[C@H]1O[C@H](O[C@H]2[C@H](O)[C@@H](O)[C@H](O)O[C@@H]2CO)[C@H](O)[C@@H](O)[C@@H]1O [Maltose] | 867.8 | – | AUC of growth curve, R. mucilaginosa (R. mucilaginosa): 1052.6; growth of R. mucilaginosa on the carbon source (in words) (R. mucilaginosa): allowed growth; AUC of growth curve, R. dentocariosa (R. dentocariosa; [1]): 977.1; growth of R. dentocariosa on the carbon source (in words) (R. dentocariosa; [2]): allowed growth; growth of P. aeruginosa on the carbon source (in words) (P. aeruginosa; [2]): did not support growth
O=C(O)[C@@H](O)[C@H](O)[C@H](O)[C@@H](O)C(=O)O [Mucic Acid] | 162.5 | – | AUC of growth curve, R. mucilaginosa (R. mucilaginosa): 53.4
CC(=O)N[C@@H](CCC(=O)O)C(=O)O [N-Acetyl-L-Glutamic Acid] | 184.1 | 272.5 | –
O=C(O)C(=O)C(C(=O)O)C(O)C(=O)O (stereo not drawn) [Oxalomalic Acid] | 691.0 | – | AUC of growth curve, R. gilardii (R. gilardii): 219.2; growth of R. gilardii on the carbon source (in words) (R. gilardii): enabled growth; AUC of growth curve, R. dentocariosa (R. dentocariosa): 169.4; growth of R. dentocariosa on the carbon source (in words) (R. dentocariosa): enabled growth; growth of P. aeruginosa on the carbon source (in words) (P. aeruginosa): did not support growth
OC[C@H]1O[C@H](OC[C@H]2OC(O)(CO)[C@@H](O)[C@@H]2O)[C@H](O)[C@@H](O)[C@@H]1O (stereo partly drawn) [Palatinose] | 763.7 | 514.7 | AUC of growth curve, R. mucilaginosa (R. mucilaginosa): 129.4; AUC of growth curve, R. dentocariosa (R. dentocariosa; [1]): 197.4
CCC(=O)O [Propionic Acid] | 235.6 | 152.1 | AUC of growth curve, R. gilardii (R. gilardii; [1]): 58.6
NCCCCN [Putrescine] | 274.2 | 656.8 | –
OCc1ccccc1O[C@@H]1O[C@H](CO)[C@@H](O)[C@H](O)[C@H]1O [Salicin] | 146.2 | – | AUC of growth curve, R. mucilaginosa (R. mucilaginosa): 74.0; AUC of growth curve, R. dentocariosa (R. dentocariosa; [1]): 222.9; growth of R. dentocariosa on the carbon source (in words) (R. dentocariosa; [2]): stimulated only the growth; growth of P. aeruginosa on the carbon source (in words) (P. aeruginosa; [2]): did not support growth
CCC(C)N (stereo not drawn) [Sec-Butylamine] | – | – | AUC of growth curve, R. mucilaginosa (R. mucilaginosa): 67.6
NC(=O)CCC(=O)O [Succinamic Acid] | 490.3 | 53.6 | –
O=C(O)CCC(=O)O [Succinic Acid] | 626.1 | 348.4 | AUC of growth curve, R. gilardii (R. gilardii; [1]): 125.7; AUC of growth curve, R. dentocariosa (R. dentocariosa; [1]): 241.8
OC[C@H]1O[C@@](CO)(O[C@H]2O[C@H](CO)[C@@H](O)[C@H](O)[C@H]2O)[C@@H](O)[C@@H]1O [Sucrose] | – | – | growth of R. mucilaginosa on the carbon source (in words) (R. mucilaginosa): allowed growth; growth of R. dentocariosa on the carbon source (in words) (R. dentocariosa; [2]): allowed growth; growth of P. aeruginosa on the carbon source (in words) (P. aeruginosa; [2]): did not support growth
O=C(O)CC(CC(=O)O)C(=O)O [Tricarballylic Acid] | 177.0 | 510.7 | –
COC1OC(CO)C(O)C(O)C1O [α-Methyl-D-Galactoside] | 229.9 | – | AUC of growth curve, R. gilardii (R. gilardii; [1]): 73.3
